Experimental data taken from patent US11253500B2, “Sanfetrinem or a salt or ester thereof for use in treating mycobacterial infection” (priority 2017, dated 2022).
≈ marks a conversion by molar mass, not a printed value. Where “and” joins values, the source holds several entries; their conditions need not be identical. Equal values may be shown once. Where a name gives a salt, the structure may show the parent alone. Read-outs that look alike come from different tables or passages of the source.

Tests used:
[1] = tested on: Mycobacterium tuberculosis growing inside human THP-1 monocytes; assay: Intracellular viability assay (luciferase Mtb in THP-1 monocytes); format: cell-based
M. tuberculosis H37Rv [2] = assay: MIC determination (extracellular, resazurin); format: cell-based, Mycobacterium tuberculosis
Mtb H37Rv strain = assay: Checkerboard assay with rifampicin, ethambutol, delamanid and amoxicillin (384-well, MTT or ATP); format: cell-based, Mycobacterium tuberculosis; details: for MICsyn_B / FIC_B: Comp B in the presence of SFT; for MIC: Mycobacterium tuberculosis, H37RV, Comp B alone (IC90); for Fold_B: MIC/MICsyn of Comp B with SFT
M. tuberculosis H37Rv [3] = assay: Checkerboard combination with amoxicillin and/or clavulanate (resazurin); format: cell-based, Mycobacterium tuberculosis
M. tuberculosis H37Rv [4] = assay: In vivo anti-tubercular activity in DHP-1 KO mice; parameters: species or system Mycobacterium tuberculosis; details: 129sv DHP-1 KO mice; for Lung CFU: intratracheal infection, twice a day from day 9 to day 14, lungs day 15, mean, untreated 7.4 (Day 9), 9.0 (Day 15); for Effect on bacterial growth in lung: treated day 9 to day 14
[5] = tested on: panel of twenty-three M. tuberculosis strains; assay: microbe, parasite or virus in culture; format: cell-based, Mycobacterium tuberculosis; details: for MIC: Mycobacterium tuberculosis
[6] = Mycobacterium tuberculosis, w/o clav, average, read-out: MIC50 μM (average w/o clav)
[7] = Mycobacterium tuberculosis, w/o clav, average, read-out: MIC90 μM (average w/o clav)
[8] = Mycobacterium tuberculosis, with clav, average, read-out: MIC50 μM (average with clav)
[9] = Mycobacterium tuberculosis, with clav, average, read-out: MIC90 μM (average with clav)
[10] = Mycobacterium tuberculosis, H37RV, extracellular, with 4 μg/ml potassium clavulanate, average, read-out: MIC μM (average with clav)
[11] = Mycobacterium tuberculosis, H37RV, extracellular, with 4 μg/ml potassium clavulanate, separate readings, read-out: MIC μM (with clav)
[12] = Mycobacterium tuberculosis, H37RV, extracellular, without clavulanate, average, read-out: MIC μM (average w/o clav)
[13] = Mycobacterium tuberculosis, H37RV, extracellular, without clavulanate, separate readings, read-out: MIC μM (w/o clav)
[14] = Mycobacterium tuberculosis, H37RV
[15] = Mycobacterium tuberculosis, w/o clav, separate readings, read-out: MIC50 μM (w/o clav)
[16] = Mycobacterium tuberculosis, w/o clav, separate readings, read-out: MIC90 μM (w/o clav)
[17] = Mycobacterium tuberculosis, with clav, separate readings, read-out: MIC50 μM (with clav)
[18] = Mycobacterium tuberculosis, with clav, separate readings, read-out: MIC90 μM (with clav)
[19] = w/o clav, separate readings, read-out: MIC50 μM (w/o clav)
[20] = w/o clav, separate readings, read-out: MIC90 μM (w/o clav)
[21] = with clav, separate readings, read-out: MIC50 μM (with clav)
[22] = with clav, separate readings, read-out: MIC90 μM (with clav)

SMILES: C[C@@H](O)[C@H]1C(=O)N2C(C(=O)O)=C(S[C@@H]3CN[C@H](C(=O)Nc4cccc(C(=O)O)c4)C3)[C@H](C)[C@H]12 [Ertapenem]
- MIC50 [1, 6]: 29.6 µM (≈ 14.1 µg/mL)
- MIC90 [1, 7]: > 50 µM
- MIC50 [1, 8]: 3.84 µM (≈ 1.83 µg/mL)
- MIC90 [1, 9]: 21 µM (≈ 10 µg/mL)
- MIC (M. tuberculosis H37Rv [2]; [10]): 16.7 µM
- MIC (M. tuberculosis H37Rv [2]; [11]): 10 µM
- MIC (M. tuberculosis H37Rv [2]; [12]): > 80 µM
- MIC (M. tuberculosis H37Rv [2]; [13]): 80 µM
- MIC (M. tuberculosis H37Rv [2]; extracellular, with 4 μg/ml potassium clavulanate, separate readings, read-out: MIC μM (with clav)): 20 µM

SMILES: C[C@@H](O)[C@H]1C(=O)N2C(C(=O)O)=C(SC3CN(C4=NCCS4)C3)[C@H](C)[C@H]12 [Tebipenem]
- MIC50 [1, 6]: 4.51 µM (≈ 1.73 µg/mL)
- MIC90 [1, 7]: 46.5 µM (≈ 17.8 µg/mL)
- MIC50 [1, 8]: 0.49 µM (≈ 0.188 µg/mL)
- MIC90 [1, 9]: 3.61 µM (≈ 1.38 µg/mL)
- MIC (M. tuberculosis H37Rv [2]; [10]): 1.25 µM
- MIC (M. tuberculosis H37Rv [2]; [11]): 1.25 µM
- MIC (M. tuberculosis H37Rv [2]; [12]): 7.5 µM
- MIC (M. tuberculosis H37Rv [2]; [13]): 7.5 µM

SMILES: CO[C@H]1/C=C/O[C@@]2(C)Oc3c(C)c(O)c4c(O)c(c(/C=N/N5CCN(C)CC5)c(O)c4c3C2=O)NC(=O)/C(C)=C\C=C\[C@H](C)[C@H](O)[C@@H](C)[C@@H](O)[C@@H](C)[C@H](OC(C)=O)[C@@H]1C [RIF, Rifampicin]
- MICsyn_B (Mtb H37Rv strain): 0.005 µM
- MIC (Mtb H37Rv strain): 0.04 µM

SMILES: CC1(C)S[C@@H]2[C@H](NC(=O)[C@H](N)c3ccc(O)cc3)C(=O)N2[C@H]1C(=O)O [amoxicillin]
- MICsyn_B (Mtb H37Rv strain): 8 µM
- MIC (Mtb H37Rv strain): 128 µM
- IC80 (M. tuberculosis H37Rv [3]; [14]): 42 µg/mL
- Reaching 90% Inhibition (M. tuberculosis H37Rv [3]; amoxicillin in monotherapy): does not reach a 90% Inhibition
- Reaching 90% growth inhibition (M. tuberculosis H37Rv [3]; in combination with clavulanate): nor in combination with clavulanate reach the 90% growth inhibition

SMILES: C[C@@H](O)[C@H]1C(=O)N2C(C(=O)O)=C(S[C@@H]3CN[C@H](C(=O)N(C)C)C3)[C@H](C)[C@H]12 [Meropenem]
- MIC50 [1, 6]: 6.78 µM (≈ 2.6 µg/mL)
- MIC90 [1, 7]: 17 µM (≈ 6.52 µg/mL)
- MIC50 [1, 15]: 8.97 µM (≈ 3.44 µg/mL)
- MIC90 [1, 16]: 19.6 µM (≈ 7.52 µg/mL)
- MIC50 [1, 8]: 1.94 µM (≈ 0.744 µg/mL)
- MIC90 [1, 9]: 5.55 µM (≈ 2.13 µg/mL)
- MIC50 [1, 17]: 2.03 µM (≈ 0.778 µg/mL)
- MIC90 [1, 18]: 5.39 µM (≈ 2.07 µg/mL)
- MIC50 [1, 19]: 4.6 µM (≈ 1.76 µg/mL)
- MIC90 [1, 20]: 14.41 µM (≈ 5.53 µg/mL)
- MIC50 [1, 21]: 1.85 µM (≈ 0.709 µg/mL)
- MIC90 [1, 22]: 5.71 µM (≈ 2.19 µg/mL)
- MIC (M. tuberculosis H37Rv [2]; [10]): 6.9 µM
- MIC (M. tuberculosis H37Rv [2]; [12]): 31.7 µM

SMILES: C[C@]1(COc2ccc(N3CCC(Oc4ccc(OC(F)(F)F)cc4)CC3)cc2)Cn2cc([N+](=O)[O-])nc2O1 [DLD, Delamanid]
- FIC_B (Mtb H37Rv strain): 0.25
- MICsyn_B (Mtb H37Rv strain): 0.0025 µM
- Fold_B (Mtb H37Rv strain): 4
- MIC (Mtb H37Rv strain): 0.01 µM

SMILES: CO[C@H]1CCC[C@H]2C1=C(C(=O)OC(C)OC(=O)OC1CCCCC1)N1C(=O)[C@H]([C@@H](C)O)[C@@H]21 (mixture of isomers) [Sanfetrinem cilexetil, (1S,5S,8aS,8bR)-1-(((cyclohexyloxy)carbonyl)oxy)ethyl 1-((R)-1-hydroxyethyl)-5-methoxy-2-oxo-1,2,5,6,7,8,8a,8b-octahydroazeto[2,1-a]isoindole-4-carboxylate]
- MIC50 [1, 6]: 0.85 µM (≈ 0.384 µg/mL)
- MIC90 [1, 7]: 5.2 µM (≈ 2.35 µg/mL)
- MIC50 [1, 8]: 0.6 µM (≈ 0.271 µg/mL)
- MIC90 [1, 9]: 5 µM (≈ 2.26 µg/mL)
- MIC90 [1, 18]: 4.6 µM (≈ 2.08 µg/mL)
- MIC90 [1, 22]: 5.3 µM (≈ 2.39 µg/mL)
- MIC (M. tuberculosis H37Rv [2]; [10]): 8.6 µM
- MIC (M. tuberculosis H37Rv [2]; [12]): 10.6 µM
- Lung CFU (M. tuberculosis H37Rv [4]): 7.6 log CFU
- Effect on bacterial growth in lung (M. tuberculosis H37Rv [4]): preventing bacterial growth

SMILES: CC[C@@H](CO)NCCN[C@@H](CC)CO [EMB, Ethambutol]
- FIC_B (Mtb H37Rv strain): 0.25
- MICsyn_B (Mtb H37Rv strain): 2 µM
- Fold_B (Mtb H37Rv strain): 4
- MIC (Mtb H37Rv strain): 8 µM

SMILES: CO[C@H]1CCC[C@H]2C1=C(C(=O)O)N1C(=O)[C@H]([C@@H](C)O)[C@@H]21 [Sanfetrinem (sodium salt), sodium (1S,5S,8aS,8bR)-1-((R)-1-hydroxyethyl)-5-methoxy-2-oxo-1,2,5,6,7,8,8a,8b-octahydroazeto[2,1-a]isoindole-4-carboxylate]
- MIC50 [1, 6]: 1.65 µM
- MIC90 [1, 7]: 5.57 µM
- MIC50 [1, 15]: 1.32 µM
- MIC50 [1, 8]: 1.64 µM
- MIC90 [1, 9]: 7.25 µM
- MIC90 [1, 18]: 6.13 µM
- MIC50 [1, 19]: 1.64 µM and 2 µM
- MIC90 [1, 22]: 6.8 µM and 8.82 µM
- Fold_A (Mtb H37Rv strain; MIC/MICsyn of SFT with AMX): 8
- Fold_A (Mtb H37Rv strain; MIC/MICsyn of SFT with DLD): 4
- Fold_A (Mtb H37Rv strain; MIC/MICsyn of SFT with EMB): 4
- Fold_A (Mtb H37Rv strain; MIC/MICsyn of SFT with RIF): 8
- FIC_A (Mtb H37Rv strain; SFT in the presence of AMX): 0.125
- MICsyn_A (Mtb H37Rv strain; SFT in the presence of AMX): 0.5 µM
- FIC_A (Mtb H37Rv strain; SFT in the presence of DLD): 0.25
- MICsyn_A (Mtb H37Rv strain; SFT in the presence of DLD): 0.4 µM
- FIC_A (Mtb H37Rv strain; SFT in the presence of EMB): 0.25
- MICsyn_A (Mtb H37Rv strain; SFT in the presence of EMB): 0.4 µM
- FIC_A (Mtb H37Rv strain; SFT in the presence of RIF): 0.125
- MICsyn_A (Mtb H37Rv strain; SFT in the presence of RIF): 0.4 µM
- FICI (Mtb H37Rv strain; combination SFT with AMX): 0.1875
- FICI (Mtb H37Rv strain; combination SFT with DLD): 0.5
- FICI (Mtb H37Rv strain; combination SFT with EMB): 0.5
- FICI (Mtb H37Rv strain; combination SFT with RIF): 0.25
- Sensitivity of all strains within the concentration range tested ([5]; MGIT 960, 23 strains, 0.5 to 20 μM): sensitive
- MIC ([5]; read-out: MIC, another four strains higher): > 5 µM
- MIC ([5]; read-out: MIC, four strains lower): < 5 µM
- MIC ([5]; read-out: MIC, most common value): 5 µM
- MIC (M. tuberculosis H37Rv [2]; Mycobacterium tuberculosis, H37RV, read-out: MIC μM (average w/o clav), extracellular, without clavulanate, average): 5 µM
- MIC (M. tuberculosis H37Rv [2]; Mycobacterium tuberculosis, H37RV, read-out: MIC μM (average with clav), extracellular, with 4 μg/ml potassium clavulanate, average): 2.9 µM
- IC90 (M. tuberculosis H37Rv [3]; [14]): 1.22 µg/mL
- IC90 (M. tuberculosis H37Rv [3]; Mycobacterium tuberculosis, H37RV, read-out: IC90 of sanfetrinem in combination with amoxicillin (at 10 μg/ml)): 0.33 µg/mL
- IC90 (M. tuberculosis H37Rv [3]; Mycobacterium tuberculosis, H37RV, read-out: IC90 of sanfetrinem in combination with clavulanate): 0.55 µg/mL
- Lung CFU (M. tuberculosis H37Rv [4]): 7.3 log CFU
- Effect on bacterial growth in lung (M. tuberculosis H37Rv [4]): preventing bacterial growth

SMILES: O=C(O)[C@H]1/C(=C/CO)O[C@@H]2CC(=O)N21 [clavulanate, Potassium clavulanate]
- Activity alone (M. tuberculosis H37Rv [3]; alone): not active

SMILES: C[C@@H](O)[C@H]1C(=O)N2C(C(=O)O)=C([C@H]3CCCO3)S[C@H]12 [Faropenem]
- MIC50 [1, 6]: 1.85 µM (≈ 0.528 µg/mL)
- MIC90 [1, 7]: 12.3 µM (≈ 3.52 µg/mL)
- MIC50 [1, 15]: 2.2 µM (≈ 0.628 µg/mL)
- MIC90 [1, 16]: 14.7 µM (≈ 4.19 µg/mL)
- MIC50 [1, 8]: 1.1 µM (≈ 0.314 µg/mL)
- MIC90 [1, 9]: 5.75 µM (≈ 1.64 µg/mL)
- MIC50 [1, 17]: 1 µM (≈ 0.285 µg/mL)
- MIC90 [1, 18]: 6.8 µM (≈ 1.94 µg/mL)
- MIC50 [1, 19]: 1.5 µM (≈ 0.428 µg/mL)
- MIC90 [1, 20]: 10.0 µM (≈ 2.85 µg/mL)
- MIC50 [1, 21]: 1.2 µM (≈ 0.342 µg/mL)
- MIC90 [1, 22]: 4.7 µM (≈ 1.34 µg/mL)
- MIC (M. tuberculosis H37Rv [2]; [10]): 8.9 µM
- MIC (M. tuberculosis H37Rv [2]; [12]): 15.7 µM
